Patent publication US6071903A, “2,3,4,5-tetrahydro-1H-[1,4]-benzodiazepine-3-hydroxyamic acids” (American Cyanamid Company, priority 1999, dated 2000)

What was measured:
Type in all cases: biochemical
[1] = target: T1, MMP-1 (Homo sapiens, UniProt P03956); experiment: In Vitro Collagenase Assay (MMP-1); settings: human recombinant fibroblast collagenase
T1 construct: human recombinant fibroblast collagenase (truncated, mw=18,828)
T1 sequence (P03956 100-269 limits assumed): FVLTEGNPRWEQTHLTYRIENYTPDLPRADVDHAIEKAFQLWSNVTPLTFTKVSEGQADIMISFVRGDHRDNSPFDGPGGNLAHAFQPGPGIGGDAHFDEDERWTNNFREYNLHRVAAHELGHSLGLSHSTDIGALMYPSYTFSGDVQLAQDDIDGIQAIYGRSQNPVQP
Description: In Vitro Collagenase Assay
This assay was based on the cleavage of a peptide substrate ((Dnp-Pro-Cha-Gly-Cys(Me)-His-Ala-Lys(NMa)-NH2), available from Peptide International, Inc.) by collagenase releasing the fluorescent NMa group which was quantitated on the fluorometer as disclosed in Bickett et al., "A High Throughput Fluorogenic Substrate for Interstitial Collagenase (MMP-1) and Gelatinase (MMP-9)", Anal. Biochem., 212:58-64, (1993). Dnp quenches the NMa fluorescence in the intact substrate.
The assay was run in HCBC assay buffer (50 mM HEPES, pH 7.0, 5 mM Ca^+2, 0.02% Brij, 0.5% Cysteine), with human recombinant fibroblast collagenase (truncated, mw=18,828. from Wyeth-Ayerst Research, Radnor, Pa.). The substrate was dissolved in methanol and stored frozen in 1 mM aliquots. Collagenase was stored frozen in buffer in 25 μM aliquots. In conducting the assay, the substrate was dissolved in HCBC buffer to a final concentration of 10 μM and collagenase to a final concentration of 5 nM. The compounds being examined were dissolved in methanol, DMSO, or HCBC. The methanol and DMSO were diluted in HCBC to <1.0%. The compounds were added to a 96 well plate containing enzyme and the reaction was started by the addition of substrate.
(§1) The reaction was read (excitation 340 nm, emission 444 nm) for 10 min. and the increase in fluorescence over time was plotted as a linear line. The slope of the line was calculated representing the reaction rate. The linearity of the reaction rate was confirmed (r^2 >0.85). The mean (x±sem) of the control rate was calculated and compared for statistical significance (p<0.05) with drug-treated rates using Dunnett's multiple comparison test.

[2] = target: MMP-9 (Homo sapiens, UniProt P14780); experiment: In Vitro Gelatinase Assay (MMP-9); settings: human neutrophil gelatinase B
Method: The enzyme activity is measured by the rate of the color increase. The thiopeptide substrate was made up fresh as a 20 mM stock in 100% DMSO and the DTNB was dissolved in 100% DMSO as a 100 mM stock and stored in the dark at room temperature. The substrate and the DTNB were diluted together to 1 mM with substrate buffer (50 mM HEPES, pH 7.5, 5 mM CaCl2) before use. […] The assay buffer, enzyme. […] The increase in OD405 was plotted and the slope of the line was calculated. The slope represents the reaction rate.

[3] = target: MMP-13 (Homo sapiens, UniProt P45452); experiment: MMP-13 inhibition (Table 1); settings: read-out: IC50 (nM) MMP-13
[4] = target: T2, TACE (Homo sapiens, UniProt P78536); experiment: Procedure for Measuring TACE Inhibition
T2 construct: purchased Immunex
Method: Procedure for Measuring TACE Inhibition
The plates were incubated for 10 minutes at room temperature. The reaction was initiated by addition of a fluorescent peptidyl substrate (final concentration 100 μM) to each well with shaking on a shaker for 5 sec.
as §1, with “420” for “444”, “and this represents” for “representing”, “The linearity of the reaction rate was confirmed (r^2 >0.85).” left out

MMP-9, sequence (P14780 94-707): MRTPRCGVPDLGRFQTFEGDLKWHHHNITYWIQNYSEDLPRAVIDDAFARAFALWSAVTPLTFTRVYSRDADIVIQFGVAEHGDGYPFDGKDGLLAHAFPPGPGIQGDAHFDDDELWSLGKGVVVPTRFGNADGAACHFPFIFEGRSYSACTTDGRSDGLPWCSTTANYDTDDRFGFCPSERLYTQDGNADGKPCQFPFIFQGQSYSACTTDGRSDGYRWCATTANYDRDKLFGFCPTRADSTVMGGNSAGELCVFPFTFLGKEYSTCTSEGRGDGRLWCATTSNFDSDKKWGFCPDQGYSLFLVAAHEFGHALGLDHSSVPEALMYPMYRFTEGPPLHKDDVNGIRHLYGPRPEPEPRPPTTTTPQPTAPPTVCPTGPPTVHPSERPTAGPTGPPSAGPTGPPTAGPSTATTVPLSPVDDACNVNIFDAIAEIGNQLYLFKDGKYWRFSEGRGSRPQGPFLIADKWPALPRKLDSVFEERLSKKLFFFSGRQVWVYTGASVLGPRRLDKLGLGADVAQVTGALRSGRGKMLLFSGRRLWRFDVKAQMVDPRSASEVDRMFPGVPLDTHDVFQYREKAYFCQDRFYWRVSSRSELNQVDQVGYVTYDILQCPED
T2 sequence (P78536 215-824): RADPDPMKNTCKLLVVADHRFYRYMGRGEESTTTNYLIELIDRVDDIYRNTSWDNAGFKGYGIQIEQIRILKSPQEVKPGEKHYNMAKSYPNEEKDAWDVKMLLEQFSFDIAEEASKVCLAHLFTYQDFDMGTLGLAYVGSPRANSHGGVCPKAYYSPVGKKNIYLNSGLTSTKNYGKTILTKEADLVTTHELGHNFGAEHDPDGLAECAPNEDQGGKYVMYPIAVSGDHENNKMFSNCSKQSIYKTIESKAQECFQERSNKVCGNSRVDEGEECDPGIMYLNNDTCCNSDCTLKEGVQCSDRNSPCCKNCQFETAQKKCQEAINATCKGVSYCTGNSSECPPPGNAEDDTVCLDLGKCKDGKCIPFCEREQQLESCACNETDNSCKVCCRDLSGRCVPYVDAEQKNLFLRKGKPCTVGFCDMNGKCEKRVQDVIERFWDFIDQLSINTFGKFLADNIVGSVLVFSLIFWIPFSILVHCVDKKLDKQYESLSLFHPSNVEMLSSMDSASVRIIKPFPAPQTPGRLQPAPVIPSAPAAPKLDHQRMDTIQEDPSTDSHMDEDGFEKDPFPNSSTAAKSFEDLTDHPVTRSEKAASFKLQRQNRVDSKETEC

SMILES | IC50 [1] | IC50 [2] | IC50 [3] | IC50 [4]
COc1ccc(S(=O)(=O)N2Cc3ccccc3N(C(=O)c3cccc(C(F)(F)F)c3)CC2C(=O)NO)cc1 (stereo not drawn) [Example 1, 4-(4-Methoxybenzenesulfonyl)-1-(3-trifluoromethylbenzoyl)-2,3,4,5-tetrahydro-1H-[1,4]-benzodiazepine-3-carboxylic acid, Hydroxyamide] | 96.2 nM | 5.1 nM | 3.7 nM | 352 nM
COc1ccc(S(=O)(=O)N2Cc3ccccc3N(S(=O)(=O)c3ccc(C)cc3)CC2C(=O)NO)cc1 (stereo not drawn) [Example 2, 4-(4-Metboxybenzenesulfonyl)-1-(4-methylphenylsulfonyl)-2,3,4,5-tetrahydro-1H-[1,4]benzodiazepine-3-carboxylic acid, Hydroxyamide] | – | 14.1 nM | 5.1 nM | 391 nM
COc1ccc(S(=O)(=O)N2Cc3ccccc3N(S(C)(=O)=O)CC2C(=O)NO)cc1 (stereo not drawn) [Example 3, 1-Methanesulfonyl-4-(4-methoxybenzenesulfonyl)-2,3,4,5-tetrahydro-1H-[1,4]benzodiazepine-3-carboxylic acid, Hydroxyamide] | 156 nM | 7.9 nM | 3 nM | 104 ± 8 nM
COc1ccc(S(=O)(=O)N2CC(C(=O)NO)N(S(=O)(=O)c3ccc(OC)cc3)Cc3ccccc32)cc1 (stereo not drawn) [Example 4, 1,4-Bis-(4-Methoxybenzenesulfonyl)-2,3,4,5-tetrahydro-1H-[1,4]benzodiazepine-3-carboxylic acid, Hydroxyamide] | 224 nM | 12.2 nM | 4.3 nM | 101 ± 3 nM
COc1ccc(S(=O)(=O)N2Cc3ccccc3N(C(=O)c3ccccc3)CC2C(=O)NO)cc1 (stereo not drawn) [Example 5, 1-Benzoyl-4-(4-methoxybenzenesulfonyl)-2,3,4,5-tetrahydro-1H-[1,4]benzodiazepine-3-carboxylic acid, Hydroxyamide] | – | 0.56 nM | 0.4 nM | 95 ± 10 nM
COc1ccc(S(=O)(=O)N2Cc3ccccc3N(C(C)=O)CC2C(=O)NO)cc1 (stereo not drawn) [Example 6, 1-Acetyl-4-(4-methoxybenzenesulfonyl)-2,3,4,5-tetrahydro-1H-[1,4]benzodiazepine-3-carboxylic acid, Hydroxyamide] | 18.4 nM | 1.4 nM | 1 nM | 103 nM
COc1ccc(S(=O)(=O)N2Cc3ccccc3N(C(=O)c3cccnc3)CC2C(=O)NO)cc1 (stereo not drawn) [Example 7, 4-(4-Methoxybenzenesulfonyl)-1-(3-pyridinylcarbonyl)-2,3,4,5-tetrahydro-1H-[1,4]benzodiazepine-3-carboxylic acid, Hydroxyamide] | 20.4 nM | 0.6 nM | 0.4 nM | 77.7 nM
COc1ccc(S(=O)(=O)N2Cc3ccccc3N(C(=O)c3cccs3)CC2C(=O)NO)cc1 (stereo not drawn) [Example 8, 4-(4-Methoxybenzenesulfonyl)-1-(2-thienylcarbonyl)-2,3,4,5-tetrahydro-1H-[1,4]benzodiazepine-3-carboxylic acid, Hydroxyamide] | 19.7 nM | – | 1.1 nM | –
COCC(=O)N1CC(C(=O)NO)N(S(=O)(=O)c2ccc(OC)cc2)Cc2ccccc21 (stereo not drawn) [Example 9, 1-Methoxyacetyl-4-(4-methoxybenzenesulfonyl)-2,3,4,5-tetrahydro-1H-[1,4]benzodiazepine-3-carboxylic acid, Hydroxyamide] | 34.1 nM | 1.34 nM | 1.19 nM | 95.2 nM
CCCS(=O)(=O)N1CC(C(=O)NO)N(S(=O)(=O)c2ccc(OC)cc2)Cc2ccccc21 (stereo not drawn) [Example 10, 4-(4-Methoxybenzenesulfonyl)-1-(propane-1-sulfonyl)-2,3,4,5-tetrahydro-1H-[1,4]benzodiazepine-3-carboxylic acid, Hydroxyamide] | 183 nM | 7 nM | 2.8 nM | 91 ± 10 nM
COc1ccc(S(=O)(=O)N2Cc3ccccc3N(C(=O)c3cc(F)ccc3C)CC2C(=O)NO)cc1 (stereo not drawn) [Example 11, 4-(4-Methoxybenzenesulfonyl)-1-(2-methyl-5-fluorobenzoyl)-2,3,4,5-tetrahydro-1H-[1,4]benzodiazepine-3-carboxylic acid, Hydroxyamide] | 55.4 nM | 3.9 nM | 2.3 nM | 271 nM
COc1ccc(S(=O)(=O)N2Cc3ccccc3N(C(=O)CCc3ccccc3)CC2C(=O)NO)cc1 (stereo not drawn) [Example 12, 4-(4-Methoxybenzenesulfonyl)-1-(3-phenylpropionyl)-2,3,4,5-tetrahydro-1H-[1,4]benzodiazepine-3-carboxylic acid, Hydroxyamide] | 523 nM | 17.9 nM | – | 207 nM
COc1ccc(S(=O)(=O)N2Cc3ccccc3N(C(=O)c3ccncc3)CC2C(=O)NO)cc1 (stereo not drawn) [Example 13, 4-(4-Methoxybenzenesulfonyl)-1-(4-pyridinylcarbonyl)-2,3,4,5-tetrahydro-1H-[1,4]benzodiazepine-3-carboxylic acid, Hydroxyamide] | 54.9 nM | 9.8 nM | 2 nM | 154 nM
COc1ccc(S(=O)(=O)N2Cc3ccccc3N(C(=O)c3ccccc3-c3ccccc3)CC2C(=O)NO)cc1 (stereo not drawn) [Example 14, 1-([1,1'-Biphenyl]-2-carbonyl)-4-(4-methoxybenzenesulfonyl)-2,3,4,5-tetrahydro-1H-[1,4]benzodiazepine-3-carboxylic acid, Hydroxyamide] | 542 nM | 12.6 nM | 3.7 nM | –
COc1ccc(S(=O)(=O)N2Cc3ccccc3N(C(=O)c3ccc(-c4ccccc4)cc3)CC2C(=O)NO)cc1 (stereo not drawn) [Example 15, 1-(4-Biphenylcarbonyl)-4-(4-methoxybenzenesulfonyl)-2,3,4,5-tetrahydro-1H-[1,4]benzodiazepine-3-carboxylic acid, Hydroxyamide] | 52.7 nM | 0.7 nM | 0.4 nM | 199 nM
COc1ccc(S(=O)(=O)N2Cc3ccccc3N(C(=O)c3ccc(Cl)cc3Cl)CC2C(=O)NO)cc1 (stereo not drawn) [Example 31, 1-(2,4-Dichlorobenzoyl)-4-(4-methoxybenzenesulfonyl)-2,3,4,5-tetrahydro-1H-[1,4]benzodiazepine-3-carboxylic acid, Hydroxyamide] | 75.5 nM | 3 nM | 2.6 nM | –
COc1ccc(S(=O)(=O)N2Cc3ccccc3N(C(=O)C3CC3)CC2C(=O)NO)cc1 (stereo not drawn) [Example 55, 1-(Cyclopropylcarbonyl)-4-(4-methoxybenzenesulfonyl)-2,3,4,5-tetrahydro-1H-[1,4]benzodiazepine-3-carboxylic acid, Hydroxyamide] | 171 nM | 4 nM | – | 68.5 nM
COc1ccc(S(=O)(=O)N2Cc3ccccc3N(C(=O)C3CCCCC3)CC2C(=O)NO)cc1 (stereo not drawn) [Example 57, 1-(Cyclohexylcarbonyl)-4-(4-methoxybenzenesufonyl)-2,3,4,5-tetrahydro-1H-[1,4]benzodiazepine-3-carboxylic acid, Hydroxyamide] | 465 nM | 12.7 nM | – | 318 nM
COCCN1CC(C(=O)NO)N(S(=O)(=O)c2ccc(OC)cc2)Cc2ccccc21 (stereo not drawn) [Example 62, 4-(4-Methoxybenzenesulfonyl)-1-(2-methoxyetbyl)-2,3,4,5-tetrahydro-1H-[1,4]benzodiazepine-3-carboxylic acid, Hydroxyamide] | 1000 nM | 100 nM | 100 nM | –
